Results from PMC11648822, “Lactam Truncation Yields a Dihydroquinazolinone Scaffold with Potent Antimalarial Activity that Targets PfATP4” (Chemmedchem, 2024).

How the values were obtained:
P. falciparum CAM3.1 = assay: Multidrug-resistant parasite viability assay (SYBR green), CAM3.1; format: cell-based; conditions: Plasmodium falciparum, 72 h, read-out: multidrug resistant P. falciparum strains EC50 (SD) CAM3.1
Description: (§1) These assays were performed as previously described.[16] P. falciparum 3D7 parasites and resistant lines Dd2, W2mef, 7G8, and artemisinin‐resistant Cambodian isolate (Cam3.I (2539T)), and P. knowlesi YH1, were cultured in human O^+ erythrocytes (RBCs) (Australian Red Cross Blood Service), in RPMI‐HEPES culture medium (pH 7.4, 50 μg/mL hypoxanthine, 25 mM NaHCO3, 20 μg/mL gentamicin, 0.5 % Albumax II (GibcoBRL)) (Thermo Fisher Scientific) and maintained in an atmosphere of 1 % O2, 4 % CO2 and 95 % N2. Parasites were synchronised with 5 % (w/v) sorbitol (Sigma‐Aldrich) treatments for ring stages. Growth assays for measuring drug inhibition of in‐cycle, ring to schizont stage parasites have been described previously. Parasites were grown in 1 % haematocrit, at 1 % and 2 % parasitaemia for P. falciparum and P. knowlesi respectively. […] Parasitaemia was measured using a SYBR DNA staining assay on a fluorometer.[33] After the incubation period, supernatants were removed and well contents were resuspended in PBS.

[1] = tested on: P. falciparum Dd2 PfATP4^G358S strain; assay: PfATP4 drug resistant parasite viability assay (LDH), Dd2 G358S; format: cell-based; conditions: for EC50: Plasmodium falciparum, DD2, 72 h, read-out: Dd2^G358S EC50 (SD)
Description: (§2) These assays were performed according to a previously described protocol.[16] Briefly, P. falciparum Dd2 strains treated with compound were incubated for 72 h at 37 °C. After incubating for 72 h, plates were frozen at −80 °C and then thawed at room temperature for at least 2 h. LDH activity, a surrogate for parasite growth was measured by the addition of the Malstst reagent mix, followed by incubation for 30 min and absorbance read using a ClarioStar Microplate reader at 650 nm. Values were normalized to DMSO control as a percentage and EC50 and dose response curves generated using GraphPad Prism.

[2] = tested on: P. falciparum Dd2 PfATP4^D425E strain; assay: 'compound 49' resistant parasite viability assay (LDH), Dd2 D425E; format: cell-based; conditions: Plasmodium falciparum, DD2, 72 h, read-out: Dd2^D425E EC50 (SD)
Description: as §2

[3] = tested on: P. knowlesi YH1 parasites; assay: P. knowlesi viability assay (SYBR green); format: cell-based; conditions: Plasmodium knowlesi, 48 h, read-out: P. knowlesi EC50 (SD) YH1
Description: These assays were performed as previously described.[16] […] Parasites were synchronised with 5 % (w/v) sorbitol (Sigma‐Aldrich) treatments for ring stages. […] Parasites were grown in 1 % haematocrit, at 1 % and 2 % parasitaemia for P. falciparum and P. knowlesi respectively. […] Parasitaemia was measured using a SYBR DNA staining assay on a fluorometer.[33] After the incubation period, supernatants were removed and well contents were resuspended in PBS.

P. falciparum Dd2 = assay: P. falciparum viability assay (SYBR green), Dd2; format: cell-based; conditions: Plasmodium falciparum, DD2, 72 h, read-out: P. falciparum parental EC50 (SD) Dd2
Description: as §1

[4] = tested on: P. falciparum Dd2 PfATP4^F156L strain; assay: 'compound 49' resistant parasite viability assay (LDH), Dd2 F156L; format: cell-based; conditions: Plasmodium falciparum, DD2, 72 h, read-out: Dd2^F156L EC50 (SD)
Description: as §2

[5] = molecular target: T1, PfATP4 (membranes prepared from 3D7 parasites) (Plasmodium falciparum, UniProt A0A143ZZK9); assay: PfATP4 Na+ assay (membrane ATPase), 3D7 membranes; format: biochemical, P. falciparum; conditions: for effect on membrane ATPase activity (PfATP4): 2 μM, high-[Na+] (152 mM), cipargamin not present
T1 construct: The membranes were prepared from isolated trophozoite‐stage 3D7 parasites; endogenous in cells; host or cells: P. falciparum 3D7 trophozoites (membrane preparation)
T1 sequence (A0A143ZZK9 whole entry): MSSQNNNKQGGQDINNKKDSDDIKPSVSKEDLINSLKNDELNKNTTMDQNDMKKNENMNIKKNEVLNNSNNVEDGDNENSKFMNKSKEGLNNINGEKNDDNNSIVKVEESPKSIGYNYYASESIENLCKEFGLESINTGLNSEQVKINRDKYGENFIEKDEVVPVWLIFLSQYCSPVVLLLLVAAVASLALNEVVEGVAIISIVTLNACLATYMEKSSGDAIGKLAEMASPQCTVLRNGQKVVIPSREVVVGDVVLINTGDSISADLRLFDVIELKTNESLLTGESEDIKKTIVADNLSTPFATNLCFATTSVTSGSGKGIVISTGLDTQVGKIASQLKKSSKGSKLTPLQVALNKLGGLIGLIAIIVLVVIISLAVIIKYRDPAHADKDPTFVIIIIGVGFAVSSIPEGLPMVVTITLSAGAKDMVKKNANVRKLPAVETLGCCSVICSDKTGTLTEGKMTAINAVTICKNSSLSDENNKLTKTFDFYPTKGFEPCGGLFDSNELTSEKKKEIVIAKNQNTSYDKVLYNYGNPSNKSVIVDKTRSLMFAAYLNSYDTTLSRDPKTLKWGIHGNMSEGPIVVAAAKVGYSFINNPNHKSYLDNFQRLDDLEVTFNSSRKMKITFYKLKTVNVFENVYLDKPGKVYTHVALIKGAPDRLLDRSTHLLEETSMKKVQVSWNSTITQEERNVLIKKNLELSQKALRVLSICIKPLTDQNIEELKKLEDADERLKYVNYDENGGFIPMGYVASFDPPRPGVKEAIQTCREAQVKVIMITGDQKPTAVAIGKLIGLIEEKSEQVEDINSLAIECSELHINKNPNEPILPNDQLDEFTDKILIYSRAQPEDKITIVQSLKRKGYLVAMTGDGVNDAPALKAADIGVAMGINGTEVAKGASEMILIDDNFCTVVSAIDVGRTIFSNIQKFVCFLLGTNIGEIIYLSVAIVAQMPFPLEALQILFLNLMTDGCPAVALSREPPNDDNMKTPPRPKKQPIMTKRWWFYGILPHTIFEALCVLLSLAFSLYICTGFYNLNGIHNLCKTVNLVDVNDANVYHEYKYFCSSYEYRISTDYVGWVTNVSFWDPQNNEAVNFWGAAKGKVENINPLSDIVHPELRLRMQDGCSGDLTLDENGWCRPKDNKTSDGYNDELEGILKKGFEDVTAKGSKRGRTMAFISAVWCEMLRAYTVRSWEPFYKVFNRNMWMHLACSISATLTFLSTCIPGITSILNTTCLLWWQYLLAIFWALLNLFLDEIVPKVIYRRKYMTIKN
Description: Figure 4 Dihydroquinazolinone analogs 14 and 36 (WJM062) inhibit Na^+‐ATPase activity in membranes prepared from isolated P. falciparum parasites, consistent with them being PfATP4 inhibitors. (A) The effects of dihydroquinazolinone compounds (2 μM), dihydroartemisinin (DHA; 50 nM; negative control) and 0.2 % v/v DMSO (solvent‐only control) on membrane ATPase activity under high‐[Na^+] conditions (152 mM Na^+) and low‐[Na^+] conditions (2 mM Na^+; stemming from the addition of 1 mM Na2ATP) in the presence and absence of the PfATP4 inhibitor cipargamin (50 nM). The membranes were prepared from isolated trophozoite‐stage 3D7 parasites. The Pi produced is expressed as a percentage of that measured in the 152 mM Na^+ Control. The data are from four independent experiments performed with different membrane preparations; the symbols show the data from individual experiments and the bars show the mean (+SEM). In individual experiments, the Pi produced in the 152 mM Na^+ Control varied from 66 to 96 nmol per mg (total) protein per min. A repeated measures ANOVA with a post hoc Tukey test was used to compare the (pre‐normalised) data for different compounds and conditions. For comparisons between different conditions for the same test compound (or for the Control), significant differences are shown with black asterisks. For comparisons between the Control and a compound under the same test condition, significant differences are shown with coloured asterisks (in this case, grey asterisks, as the only significant differences were between the control and the dihydroquinazolinone compounds in the 152 mM Na^+ condition). ***P<0.001. (B) Concentration‐dependence of the effects of dihydroquinazolinone compounds on PfATP4‐associated ATPase activity in membranes prepared from 3D7 parasites. The data are the mean (shown + or − SEM) obtained from four independent experiments performed with different membrane preparations, with the exception of the lowest and second‐lowest concentrations of the compounds, for which data are from two and three independent experiments, respectively. (C and D) Potency of dihydroquinazolinone compounds against PfATP4‐associated ATPase activity in membranes prepared from Dd2‐Polδ‐PfATP4^G358S parasites (open triangles) and their Dd2‐Polδ parents (closed triangles). The data are the mean (shown + or − SEM) from four (C) or three (D) independent experiments. In B−D, the Pi production measured in the low‐[Na^+] (2 mM) condition was subtracted from that measured in high‐[Na^+] (152 mM) in the presence of each of the different concentrations of dihydroquinazolinone compounds to calculate the PfATP4‐associated ATPase activity. The PfATP4‐associated ATPase activity is expressed as a percentage of that obtained for the high‐[Na^+] (152 mM) Control.
Membrane ATPase assays were performed using a PiColorLock Gold Phosphate Detection System (Innova Biosciences), essentially as described previously.[25] Membranes were prepared either from isolated 3D7 trophozoites or from isolated Dd2‐Polδ‐PfATP4^G358S [22] and Dd2‐Polδ trophozoites.[26]

SMILES	EC50 (P. falciparum CAM3.1)	EC50 [1]	fold less potent against PfATP4^G358S strain relative to the Dd2 parental line ([1]; ratio of EC50s)	EC50 [2]	EC50 [3]	EC50 (P. falciparum Dd2)	EC50 [4]	EC50 [5]	effect on membrane ATPase activity (PfATP4) [5]
CN1C(=O)c2ccc(-n3cccn3)cc2NC1(C)C(=O)Nc1cncc(Cl)c1 (centres unmarked) [Compound 33, N‐(5‐Chloropyridin‐3‐yl)‐2,3‐dimethyl‐4‐oxo‐7‐(1H‐pyrazol‐1‐yl)‐1,2,3,4‐tetrahydroquinazoline‐2‐carboxamide]	60 nM	537 nM	7 fold	126 nM	101 nM	46 nM	125 nM		
COc1cc(F)c2c(c1)NC(C)(C(=O)Nc1cncc(Cl)c1)N(C)C2=O (centres unmarked) [Compound 36, N‐(5‐Chloropyridin‐3‐yl)‐5‐fluoro‐7‐methoxy‐2,3‐dimethyl‐4‐oxo‐1,2,3,4‐tetrahydroquinazoline‐2‐carboxamide]	14 nM	41 nM		43 nM	33 nM	13 nM	47 nM	8.6 nM	complete inhibition
CN1C(=O)c2ccc(Cl)cc2NC1(C)C(=O)Nc1cncc(Cl)c1 (centres unmarked) [Compound 14, 7‐Chloro‐N‐(5‐chloro‐3‐pyridyl)‐2,3‐dimethyl‐4‐oxo‐1H‐quinazoline‐2‐carboxamide]	21 nM	61 nM		55 nM	58 nM	19 nM	89 nM	7.2 nM	complete inhibition
